Source: patent publication US12459951B2, “Compounds that interact with RAS superfamily proteins for treatment of cancers, inflammatory diseases, rasopathies, and fibrotic disease” (SHY Therapeutics, LLC, priority 2022, dated 2025)

Key:
[1] = tested on: MiaPaca-2 (expressing KRAS G12C mutant); test: Proliferation Assay (Cell Viability Assay); format: cell-based; details: Homo sapiens, MIA PaCa-2; read-out: Proliferation in MiaPaca-2: IC50
Method in brief: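 After 2–4 days' exposure at 37 °C, 5% CO2 to a single 10 μM final concentration or a dilution series (IC50), percent proliferation inhibition was derived from CellTiter 96 Aqueous One viability readings. The medium contained 0.3% DMSO and 10% FBS. KRAS G12C MiaPaca-2 cells were plated at 2000–5000/well the day before.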

[2] = tested on: KRas G12D mutant; test: Ras GTP Binding Domain Inhibition Assay (Ras Superfamily Assay); details: at 20 μM; for KRas G12D mutant + SOS: % inh.: with SOS; for KRas G12D mutant: % inh.: without SOS
Method in brief: (§1)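 His-tagged GTPases immobilised on nickel-coated plates, pre-incubated with compound (20 μM single point, or serial dilution for IC50) 3 h at room temperature, with or without 10-30 μg/mL Sos (residues 556-1049) in the final hour. Bound Cy3- or Cy5-GTP (100 nM, 45 min) measured by fluorescence after washing.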

[3] = tested on: KRas wild type; test: as above; details: at 20 μM; for KRas wild type + SOS: % inh.: with SOS; for KRas wild type: % inh.: without SOS
Method in brief: as §1

[4] = tested on: IL6; test: IL-6 Quantification Assay (ELISA), LPS-stimulated RAW 264.7; format: cell-based; set-up: inhibition: dose or concentration left out as unconfirmed; details: Mus musculus, RAW264.7; read-out: IL-6: % inh.

SMILES	IC50 [1] [nM]	KRas G12D mutant + SOS: % inh. [2]	KRas G12D mutant: % inh. [2]	KRas wild type + SOS: % inh. [3]	KRas wild type: % inh. [3]	inhibition [4] [%]
COc1ccnc(Nc2nc(-c3nccn3C)nn3cc(-c4ccn(CCN)n4)c(C)c23)c1 [Compound 187, 6-(1-(2-Aminoethyl)-1H-pyrazol-3-yl)-N-(4-methoxypyridin-2-yl)-5-methyl-2-(1-methyl-1H-imidazol-2-yl)pyrrolo[2,1-f][1,2,4]triazin-4-amine]	> 1000	D (D = 76-100% inhibition)	D (D = 76-100% inhibition)	D (D = 76-100% inhibition)	D (D = 76-100% inhibition)	50 to 74
COc1ccnc(Nc2nc(-c3nccn3CCN)nn3cc(-c4ccn(C)n4)c(C)c23)c1 [Compound 188, 2-(1-(2-Aminoethyl)-1H-imidazol-2-yl)-N-(4-methoxypyridin-2-yl)-5-methyl-6-(1-methyl-1H-pyrazol-3-yl)pyrrolo[2,1-f][1,2,4]triazin-4-amine]	> 1000	D (D = 76-100% inhibition)	D (D = 76-100% inhibition)	D (D = 76-100% inhibition)	D (D = 76-100% inhibition)	50 to 74
Cn1ccnc1-c1nc(O)c2c(-c3ccccc3)c(-c3cccnc3)cn2n1 [Compound 189, 2-(1-Methyl-1H-imidazol-2-yl)-5-phenyl-6-(pyridin-3-yl)pyrrolo[2,1-f][1,2,4]triazin-4-ol]	> 1000	A (A = 1-25% inhibition)	A (A = 1-25% inhibition)	0 (0 = 0% inhibition)	0 (0 = 0% inhibition)	0
CO[C@H]1C[C@@H](Nc2nc(-c3nccn3C)nn3cc(-c4cccnc4)c(-c4ccccc4)c23)C1 [Compound 191, N-((1s,3s)-3-Methoxycyclobutyl)-2-(1-methyl-1H-imidazol-2-yl)-5-phenyl-6-(pyridin-3-yl)pyrrolo[2,1-f][1,2,4]triazin-4-amine]	> 1000	B (B = 26-49% inhibition)	B (B = 26-49% inhibition)	B (B = 26-49% inhibition)	A (A = 1-25% inhibition)	50 to 74
CO[C@H]1C[C@H](Nc2nc(-c3nccn3C)nn3cc(-c4cccnc4)c(-c4ccccc4)c23)C1 [Compound 192, N-((1r,3r)-3-Methoxycyclobutyl)-2-(1-methyl-1H-imidazol-2-yl)-5-phenyl-6-(pyridin-3-yl)pyrrolo[2,1-f][1,2,4]triazin-4-amine]	> 1000	B (B = 26-49% inhibition)	B (B = 26-49% inhibition)	B (B = 26-49% inhibition)	B (B = 26-49% inhibition)	75 to 100
COCCNc1nc(-c2nccn2C)nn2cc(-c3cccnc3)c(-c3ccccc3)c12 [Compound 195, N-(2-Methoxyethyl)-2-(1-methyl-1H-imidazol-2-yl)-5-phenyl-6-(pyridin-3-yl)pyrrolo[2,1-f][1,2,4]triazin-4-amine]	> 1000	A (A = 1-25% inhibition)	A (A = 1-25% inhibition)	0 (0 = 0% inhibition)	A (A = 1-25% inhibition)	50 to 74
COc1ccnc(Nc2nc(-c3nccn3C)nn3cc(-c4cccnc4)c(-c4ccccc4)c23)c1 [Compound 196, N-(4-Methoxypyridin-2-yl)-2-(1-methyl-1H-imidazol-2-yl)-5-phenyl-6-(pyridin-3-yl)pyrrolo[2,1-f][1,2,4]triazin-4-amine]	< 150	D (D = 76-100% inhibition)	D (D = 76-100% inhibition)	D (D = 76-100% inhibition)	D (D = 76-100% inhibition)	75 to 100
CO[C@H]1C[C@@H](Nc2nc(-c3nccn3C)nn3cc(-c4ccncc4)c(-c4ccccc4)c23)C1 [Compound 198, N-((1s,3s)-3-Methoxycyclobutyl)-2-(1-methyl-1H-imidazol-2-yl)-5-phenyl-6-(pyridin-4-yl)pyrrolo[2,1-f][1,2,4]triazin-4-amine]	> 1000	B (B = 26-49% inhibition)	B (B = 26-49% inhibition)	B (B = 26-49% inhibition)	A (A = 1-25% inhibition)	25 to 49
CO[C@H]1C[C@H](Nc2nc(-c3nccn3C)nn3cc(-c4ccncc4)c(-c4ccccc4)c23)C1 [Compound 199, N-((1r,3r)-3-Methoxycyclobutyl)-2-(1-methyl-1H-imidazol-2-yl)-5-phenyl-6-(pyridin-4-yl)pyrrolo[2,1-f][1,2,4]triazin-4-amine]	> 1000	B (B = 26-49% inhibition)	B (B = 26-49% inhibition)	B (B = 26-49% inhibition)	A (A = 1-25% inhibition)	75 to 100
COCCNc1nc(-c2nccn2C)nn2cc(-c3ccncc3)c(-c3ccccc3)c12 [Compound 202, N-(2-Methoxyethyl)-2-(1-methyl-1H-imidazol-2-yl)-5-phenyl-6-(pyridin-4-yl)pyrrolo[2,1-f][1,2,4]triazin-4-amine]	> 1000	C (C = 50-75% inhibition)	C (C = 50-75% inhibition)	C (C = 50-75% inhibition)	B (B = 26-49% inhibition)	50 to 74
CO[C@H]1C[C@H](Nc2nc(-c3nccn3C)nn3cc(-c4ccccc4)c(-c4ccccc4)c23)C1 [Compound 203, N-((1r,3r)-3-Methoxycyclobutyl)-2-(1-methyl-1H-imidazol-2-yl)-5,6-diphenylpyrrolo[2,1-f][1,2,4]triazin-4-amine]	510 to 1000	0 (0 = 0% inhibition)	0 (0 = 0% inhibition)	0 (0 = 0% inhibition)	0 (0 = 0% inhibition)	75 to 100
CO[C@H]1C[C@H](Nc2nc(-c3nccn3C)nn3cc(-c4cccc(CN)c4)c(-c4ccccc4)c23)C1 [Compound 204, 6-(3-(aminomethyl)phenyl)-N-((1r,3r)-3-methoxycyclobutyl)-2-(1-methyl-1H-imidazol-2-yl)-5-phenylpyrrolo[2,1-f][1,2,4]triazin-4-amine]	> 1000	A (A = 1-25% inhibition)	A (A = 1-25% inhibition)	A (A = 1-25% inhibition)	A (A = 1-25% inhibition)	75 to 100
CO[C@H]1C[C@H](Nc2nc(-c3nccn3C)nn3cc(-c4ccc(CN)cc4)c(-c4ccccc4)c23)C1.Cl [Compound 206, 6-(4-(Aminomethyl)phenyl)-N-((1r,3r)-3-methoxycyclobutyl)-2-(1-methyl-1H-imidazol-2-yl)-5-phenylpyrrolo[2,1-f][1,2,4]triazin-4-amine hydrochloride salt]	> 1000	A (A = 1-25% inhibition)	A (A = 1-25% inhibition)	A (A = 1-25% inhibition)	A (A = 1-25% inhibition)	75 to 100
